# Experimental data from US20100056983A1, “Treatment of cancer using photodynamic therapy” (Health Research, Inc., priority 2007, published 2010).
# Marks after values point to notes of the source that are not given here.
# Columns and labels:
# [1] = Duration of cutaneous photosensitivity after the photosensitizer; format: in vivo
# Excerpt: Further, porfimer sodium is activated by light at 630 nm, which is suboptimal for tissue penetration. In addition, in tissues found in the upper respiratory system, side effects to normal tissue proximate to a tumor site has been greater than desirable, e.g. edema and normal tissue destruction, sometimes contributing to weeks for recovery and in some cases possibly causing permanent injury to normal proximate tissue. These drawbacks have led to a search for other photosensitizers without these limitations. This is especially important with respect to cancers that interfere with respiration, e.g. nose, mouth, pharynx, larynx and trachea. Temporary interference with digestive function can be tolerated since the body can cope without food input for a significant period of time and additionally, intravenous feeding can be readily done for temporary nutrition. The same case can of course not be made when respiration is involved since interference with respiration for even a short period is exceedingly distressful and in extreme cases can be fatal. In the case of cancers that involve the upper respiratory system it is therefore exceedingly important that damage to normal tissue be avoided. […]
# T1 recurrent lesions = conditions: 26 patients, follow up of 6 to 51 months; cited from earlier work
# [2] = test system: squamous cell carcinoma of the larynx; conditions: cited from earlier work
# [3] = test system: cancers that involve epithelial type tissue in the upper respiratory system; assay: Effective photosensitizer dose for PDT of cancers in the upper respiratory system; format: in vivo, human
# Experimental: HPPH is effective at doses of only 0.08 to 0.13 mg/kg of body weight (3.5 mg/m2 of body surface area) versus a minimum of 2 mg/kg of body weight for porfimer sodium.
# [4] = patients after PDT; cited from earlier work
# [5] = Ratio of normal tissue levels of two photosensitizers in mice to tumor levels; format: in vivo; conditions: 24 h post injection
# Excerpt: A table showing relative concentrations in normal tissue and cancer tissue for various tissue types is shown below. Ratios are shown in the form of concentration in normal tissue/concentration in tumor tissue. Lower numbers thus represent less PDT agent (HPPH or porfimer sodium) in normal tissue relative to concentration in tumor tissue. Lower concentrations in normal tissue would be expected to result in less tissue damage at tumor concentrations sufficient to destroy tumor tissue.
# Ratios were obtained by dividing actual amounts of the photosensitizer in a given tissue by the amount in the tumor.
# Data at 24 h post injection were used since this is the time the mice are treated by light, generally from a laser at non-thermal dose rates.
# [6] = test system: high grade dysplasia / Barrett's mucosa; conditions: 2 mg/kg, 630±5 nm, 100 to 250 joules/cm, cited from earlier work
# [7] = test system: squamous cell carcinoma on their larynx; assay: HPPH-PDT of a patient with squamous cell carcinoma on the larynx (Example 1); format: in vivo, human
# Experimental: A person presented with a squamous cell carcinoma on their larynx. They refused surgery and radiation therapy and chose photodynamic therapy treatment using HPPH (2-[1-hexyloxyethyl]-2-devinyl pyropheophorbide a). They were infused over one hour with HPPH at 4 mg/m^2 (about 0.1 mg/kg). The following day they received non-thermal low power laser light treatment (150 mw/cm) at 665 nm in order to activate the photodynamic process. The light was delivered by a single quartz fiber treaded through a laryngoscope. They received 50 Joules/cm of the 665 nm light over 5.5 min.
# [8] = test system: squamous cell carcinoma of the floor of the mouth; assay: HPPH-PDT of a patient with squamous cell carcinoma of the floor of the mouth (Example 2); format: in vivo, human
# Experimental: A person presented with a squamous cell carcinoma of the floor of the mouth. They chose to have photodynamic therapy with HPPH (2-[1-hexyloxyethyl]-2-devinyl propheophorbide—a) rather than surgery or radiation therapy. They were infused with 4 mg/m^2 HPPH. The following day they received non-thermal low power laser light (150 mw/cm) at 665 nm in order to activate photodynamic process. The light was delivered by a single quartz fiber threaded through a laryngoscope. They received 50 Joules/cm of the 665 nm light over 5.5 min. […] This was resolved when examined 30 days after treatment.
# [9] = normalized to 5 mg/kg from data obtained at 27 mg/kg
# [10] = 4 mg/m^2 HPPH, 50 Joules/cm at 665 nm
compound,measurement,setting,value
porfimer sodium,Duration of prolonged cutaneous photosensitivity,[1]; patients after PDT,4-6 weeks
same,Complete response,T1 recurrent lesions,77%
same,Recurrences,"[2]; 117 patients treated for cure, follow-up to 189 months (mean 84 months)",10
same,Adverse reactions,[2]; 117 patients with squamous cell carcinoma of the larynx,edema and erythema
same,Effective dose,[3]; with light exposure (HPPH 665±5 nm),≥ 2 mg/kg of body weight
same,Period of complete protection from sunlight and bright light because of skin photosensitization,[4],up to 90 days
same,Ratio concentration in normal tissue/concentration in tumor tissue: Adrenals,[5]; [9],6.5^###
same,Ratio concentration in normal tissue/concentration in tumor tissue: Brain,[5]; [9],0.05^###
same,Ratio concentration in normal tissue/concentration in tumor tissue: Kidney,[5],4
same,Ratio concentration in normal tissue/concentration in tumor tissue: Liver,[5],7
same,Ratio concentration in normal tissue/concentration in tumor tissue: Lung,[5],1.7
same,Ratio concentration in normal tissue/concentration in tumor tissue: Muscle,[5],0.33
same,Ratio concentration in normal tissue/concentration in tumor tissue: Pancreas,[5]; [9],4.3^###
same,Ratio concentration in normal tissue/concentration in tumor tissue: Skin,[5],about 0.93
same,Ratio concentration in normal tissue/concentration in tumor tissue: Skin,[5]; listed as PHOTOFRIN,0.93
same,Ratio concentration in normal tissue/concentration in tumor tissue: Spleen,[5]; [9],3.1^###
same,Ratio concentration in normal tissue/concentration in tumor tissue: Urinary Bladder,[5]; [9],5.9^###
same,Absolute Tumor Levels,[5],1.05 µg/g
same,Destruction of high grade dysplasia,[6]; 100 patients,all patients treated
same,Patients with complete ablation of Barrett's mucosa,[6]; 100 patients,43%
same,Patients with esophageal strictures,[6]; all patients treated,34%
same,Patients with complete ablation of Barrett's mucosa with PDT treatment only,[6],8%
same,Patients with complete ablation who required thermal ablation of small residual islands,[6],35%
"CCCCCCOC(C)c1c(C)c2cc3nc(c4c5[nH]c(cc6nc(cc1[nH]2)C(C)=C6CC)c(C)c5C(=O)C4)[C@@H](CCC(=O)O)[C@@H]3C (stereo partly shown) [HPPH, 2-(1-hexyloxyethyl)-2-devinyl pyropheophorbide-a]",Duration of prolonged cutaneous photosensitivity,[1]; in vivo,1-2 weeks
same,Effect upon normal tissue,[7]; [10],No affect upon normal tissue
same,Skin photosensitivity,[7]; [10],no skin photosensitivity
same,Response to treatment,"[7]; 4 mg/m^2 HPPH, 50 Joules/cm at 665 nm next day, second follow up at 3 months",complete response
same,Adverse effects after treatment,[7]; completely resolved at first follow up 30 days after treatment,transient edema and hoarseness of voice
same,Effect upon normal tissue,[8]; [10],No effect upon normal tissue
same,Skin photosensitivity,[8]; [10],no skin photosensitivity
same,Response to treatment,"[8]; 4 mg/m^2 HPPH, 50 Joules/cm at 665 nm next day, follow up at 6 months, confirmed by biopsy",complete response
same,Adverse effects after treatment,"[8]; controlled with analgesics, resolved when examined 30 days after treatment",transient moderate pain at the treatment site
same,Effective dose per body surface area,[3]; with light exposure at 665±5 nm,3.5 mg/m2 of body surface area
same,Ratio concentration in normal tissue/concentration in tumor tissue: Adrenals,[5],0.95
same,Ratio concentration in normal tissue/concentration in tumor tissue: Brain,[5],0.01
same,Ratio concentration in normal tissue/concentration in tumor tissue: Kidney,[5],0.12
same,Ratio concentration in normal tissue/concentration in tumor tissue: Liver,[5],1.9
same,Ratio concentration in normal tissue/concentration in tumor tissue: Lung,[5],2.7
same,Ratio concentration in normal tissue/concentration in tumor tissue: Muscle,[5],0.095
same,Ratio concentration in normal tissue/concentration in tumor tissue: Pancreas,[5],0.11
same,Ratio concentration in normal tissue/concentration in tumor tissue: Spleen,[5],0.14
same,Ratio concentration in normal tissue/concentration in tumor tissue: Urinary Bladder,[5],0.11
same,Absolute Tumor Levels,[5],3 µg/g
